Test results from patent EP4417202A1, “ANTI-CANCER ACTION OF BAG1-SELECTIVE IMIDAZOPYRIDINE COMPOUNDS IN STEROID HORMONE RECEPTOR-POSITIVE BREAST AND PROSTATE CANCER” (Karlsruher Institut für Technologie, priority 2023, dated 2024).

Columns and labels:
[1] = tested on: T47D cells; test: FACS cell cycle analysis; type: cell-based; details: 1 µM, 48 h, 7-AAD
Experimental: (§1) LNCaP, LAPC-4, MCF-7 and T47D cells were treated with 1 µM X15695 or DMSO for 48 h. Single cell suspensions (1×10^6 cells) were prepared in 150 µl PBS/10% FBS. Cells were fixed by addition of 5 ml ice-cold ethanol (70%) and over-night incubation at 4°C. Fixed LNCaP and LAPC-4 cells were stained with 20 µM DRAQ5 (5mM stock, Thermo Fisher Scientific) and incubated for 15 min at room temperature. Fixed MCF-7 and T47D cells were resuspended in PBS at concentration of 1×10^6 cells/100 µl and stained by addition of 5 µl of 7-AAD (BD Bioscience, San Diego, CA, USA) for 15 min at room temperature in the dark. Flow cytometry analysis was performed using BD FACSAria (BD Biosciences, Franklin Lakes, NJ, USA). Doublets and dead cells were excluded from the analysis. Flow cytometry data were analyzed using FlowJo 10.8.1 cytometry analysis software (FlowJo, LLC).

[2] = tested on: LAPC-4 cells; test: FACS cell cycle analysis; type: cell-based; details: 1 µM, 48 h, DRAQ5
Experimental: as §1

[3] = tested on: LNCaP cells; test: FACS cell cycle analysis; type: cell-based; details: 1 µM, 48 h, DRAQ5
Experimental: as §1

[4] = tested on: MCF-7 cells; test: FACS cell cycle analysis; type: cell-based; details: 1 µM, 48 h, 7-AAD
Experimental: as §1

[5] = tested on: ERα
Experimental: For Western blotting, cells were lysed in NP-40 lysis buffer (1% NP-40, 50 mM Tris-HCl, pH 8.0, 150 mM NaCl, 5 mM EDTA) or 1× passive lysis buffer (Promega, Germany) for 15 min on ice. Cell debris was removed by centrifugation at 13,000 rpm for 10 min and used for SDS-polyacrylamide gel electrophoresis (PAGE) and Western blotting.
Western Blotting was carried out using standard protocols with antibodies: p53 (clone DO1), p53 (Sp5, Thermo Fisher Scientific Karlsruhe, Germany), Mdm2 (4B2, Abcam, Cambridge, UK). […] Secondary goat anti-mouse and goat anti-rabbit antibodies were purchased from DAKO (Bollschweil, Germany).

[6] = tested on: AR; test: Western blot of AR level in prostate cancer cells; type: cell-based; details: LNCaP and 22Rv.1 cells, 24 h
[7] = tested on: LAPC-4 tumors; test: Mouse xenograft experiment, LAPC-4; type: in vivo; details: LAPC-4 xenograft, 42 days
Experimental: MCF-7 and LAPC-4 cells (2×10^6) were suspended in 100 µl PBS: Matrigel (Corning NY USA, 1:1) and injected subcutaneously into both flanks of 6-7 weeks old female (for MCF-7 cells) and male (for LAPC-4 cells) athymic nude-Foxn1^nu mice (Envigo RMS GmbH, Düsseldorf, Germany). When tumor volumes were around 50 to100 mm^3, mice were randomized into four groups (7 mice per group) and treated daily by oral gavage as follows: (1) Control group (Vehicle) (corn oil, 1.0% dimethyl sulfoxide (DMSO) and (2) X15695 group, 30 mg per kg body weight) for the MCF-7 tumors or (1) Control group (Vehicle) (corn oil, 1.0% dimethyl sulfoxide (DMSO) ([…]), (3) X15695 group, 30 mg per kg body weight) and, (4) X15695 group (15 mg per kg body weight) for the LAPC-4 tumors. Body weight and tumor volumes were measured twice a week. Tumor volume was measured with a digital vernier caliper and calculated using the formula vol = length × width × height × 0.5236 and recorded or calculated relative to the starting volume which was nominally set at 100%. After 16 days for the MCF-7 tumors or 42 days for the LAPC-4 tumors, mice were sacrificed and the tumors removed, photographed, and weighed. Percent body weight change was calculated using the following formula: group percent weight change = [(new weight - initial weight)/initial weight] × 100]. Tumors were snap-frozen and stored for Western blot analysis.

[8] = tested on: MCF-7 tumors; test: Mouse xenograft experiment, MCF-7; type: in vivo; details: MCF-7 xenograft
Experimental: MCF-7 and LAPC-4 cells (2×10^6) were suspended in 100 µl PBS: Matrigel (Corning NY USA, 1:1) and injected subcutaneously into both flanks of 6-7 weeks old female (for MCF-7 cells) and male (for LAPC-4 cells) athymic nude-Foxn1^nu mice (Envigo RMS GmbH, Düsseldorf, Germany). When tumor volumes were around 50 to100 mm^3, mice were randomized into four groups (7 mice per group) and treated daily by oral gavage as follows: (1) Control group (Vehicle) (corn oil, 1.0% dimethyl sulfoxide (DMSO) and (2) X15695 group, 30 mg per kg body weight) for the MCF-7 tumors or (1) Control group (Vehicle) (corn oil, 1.0% dimethyl sulfoxide (DMSO) (2) enzalutamide (Enza group, 15 mg per kg body weight), (3) X15695 group, 30 mg per kg body weight) and, (4) X15695 group (15 mg per kg body weight) for the LAPC-4 tumors. Body weight and tumor volumes were measured twice a week. Tumor volume was measured with a digital vernier caliper and calculated using the formula vol = length × width × height × 0.5236 and recorded or calculated relative to the starting volume which was nominally set at 100%. After 16 days for the MCF-7 tumors or 42 days for the LAPC-4 tumors, mice were sacrificed and the tumors removed, photographed, and weighed. Percent body weight change was calculated using the following formula: group percent weight change = [(new weight - initial weight)/initial weight] × 100]. Tumors were snap-frozen and stored for Western blot analysis.

[9] = tested on: MCF-7; test: Clonogenic assay (clonal expansion); type: cell-based
Experimental: (§2) Cells were seeded at a density of 1-2×10^3 cells/well in a 6 well plate in RPMI 1640 supplemented with 10% FBS, penicillin (100 u/ml), streptomycin (100 u/ml), and L-glutamine (2 mM). Cells were treated with increasing concentrations of X15695 and cultured for 14 to 21 days. Medium and compounds were exchanged after 7 days. Cells were fixed with methanol/ acetic acid mixture (3:1 v/v) and the formation of colonies was visualized using 0.5% crystal violet (w/v) in 20% methanol (v/v). Plates were scanned in a conventional office scanner (Epson). The area covered by colonies was calculated using the ColonyArea Plugin for ImageJ.

[10] = tested on: U2OS; test: Clonogenic assay (clonal expansion); type: cell-based; details: U2OS (osteosarcoma)
Experimental: as §2

[11] = tested on: LNCaP; test: Clonogenic assay (clonal expansion); type: cell-based; details: Homo sapiens; Prostate Cancer (LNCaP), AR+; inhibition of clonal expansion
Experimental: as §2

[12] = 30 mg/kg body weight per os daily
[13] = Western blot after the treatment period

## Fc1ccc(-c2cn3cc(C(F)(F)F)cc(Cl)c3n2)cc1 [Compound X15695, 8-Chloro-2-(4-fluorophenyl)-6-(trifluoromethyl)imidazo[1,2-a]pyridine]
[1]
  cell cycle arrest: G2/M cell cycle arrest
[2]
  cell cycle arrest: G2/M arrest
[3]
  cell cycle arrest: G1/S phase arrest
[4]
  cell cycle arrest: G1/S phase arrest
[5]; MCF-7 cells, 1 µM, time course
  ERα downregulation over time: rather slow but more sustained downregulation lasing over 24 to 48 h
[5]; MCF-7 cells, 8 h
  concentration sufficient to downregulate ERα: ≤ 1 nM
[5]; immunoblotting, MCF-7 and T47D cells, 48 h
  ERα level: dose-dependently decreased ERα level
[6]
  AR level: did not strongly downregulate AR level
[7]; oral 30 mg/kg/day, less effective than enzalutamide (10 mg/kg/day)
  tumor growth: effectively inhibit tumor growth over vehicle
[7]; oral
  tolerability, body weight: well tolerated during the study and no sign of toxicity or weight loss was observed
[8]; [12]
  tumor volume: significant decrease
  tumor weight: significant decrease
[8]; 30 mg/kg body weight per os daily, 16 days
  tolerability, body weight: well tolerated and did not cause any weight loss or other signs of host toxicity
[8]; [13]
  ERα level in tumor lysates: significant decrease in ERα level
  p53 expression in tumor lysates: increase in p53 expression
[9]; Homo sapiens, MCF7, Breast Cancer (MCF-7), ER+, inhibition of clonal expansion
  IC50: 3.5 ± 1.7 nM
[9]; MCF-7 cells, compared with HeLa, A549 and U2OS
  effect on clonal expansion: dose-dependently inhibited the clonal expansion
[10]
  effect on clonal expansion: did not have any effect
[11]
  IC50: 14.1 nM
